Test results: article PMC12136037, “Type II kinase inhibitors that target Parkinson’s disease–associated LRRK2” (Science Advances, 2025)
pEC50: −log10 of the molar value. Values joined by “and” are separate entries in the source; they are usually repeats but may differ in a detail not shown here. Equal entries are not always repeated. Where two headings read alike, the source gives them in different places.

How the values were obtained:
Assay in all cases: nanoBRET off-target validation
Type in all cases: cell-based
CDKL1 = biological target: T1, CDKL1 (Homo sapiens, UniProt Q00532)
T1 construct: host or cells: HEK293T (ATCC CRL-3216)
T1 sequence (Q00532 whole entry): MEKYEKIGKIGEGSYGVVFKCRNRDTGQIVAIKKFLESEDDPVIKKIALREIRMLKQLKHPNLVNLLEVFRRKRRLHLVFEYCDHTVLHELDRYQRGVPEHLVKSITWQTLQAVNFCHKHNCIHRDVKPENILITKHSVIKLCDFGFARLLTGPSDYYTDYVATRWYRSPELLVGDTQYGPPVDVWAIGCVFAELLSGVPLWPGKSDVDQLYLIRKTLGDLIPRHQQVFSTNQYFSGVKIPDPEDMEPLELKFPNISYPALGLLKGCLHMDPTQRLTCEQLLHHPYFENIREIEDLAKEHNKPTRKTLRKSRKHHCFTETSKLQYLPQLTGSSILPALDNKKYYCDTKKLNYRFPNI
Description: (§1) The assay was performed as described previously ([61]). In brief, full-length kinases as listed in table S6 were obtained as plasmids cloned in frame with terminal NanoLuc-fusion (gift from Promega; table S6). […] Serially diluted inhibitor and corresponding tracer as listed in table S6 at the Tracer KD concentration taken from TracerDB (tracerdb.org) ([62]) were pipetted into white 384-well plates (Greiner, 781207) using an ECHO acoustic dispenser (Labcyte). The corresponding protein-transfected cells were added and reseeded at a density of 2 × 10^5 cells/ml after trypsinization and resuspending in Opti-MEM without phenol red (Life Technologies). The system was allowed to equilibrate for 3 hours at 37°C/5% CO2 before bioluminescence resonance energy transfer (BRET) measurements. To measure BRET, NanoBRET NanoGlo Substrate + extracellular NanoLuc Inhibitor (Promega, N2540) was added as per the manufacturer’s protocol, and filtered luminescence was measured on a PHERAstar plate reader (BMG Labtech) equipped with a luminescence filter pair [450-nm BP filter (donor) and 610-nm LP filter (acceptor)]. […] (For step-by-step protocol, see www.eubopen.org/sites/www.eubopen.org/files/attachments/2021/NanoBRET-IC50_v1_0.pdf.)

CLK1 = biological target: T2, CLK1 (Homo sapiens, UniProt P49759)
T2 construct: host or cells: HEK293T (ATCC CRL-3216)
T2 sequence (P49759 whole entry): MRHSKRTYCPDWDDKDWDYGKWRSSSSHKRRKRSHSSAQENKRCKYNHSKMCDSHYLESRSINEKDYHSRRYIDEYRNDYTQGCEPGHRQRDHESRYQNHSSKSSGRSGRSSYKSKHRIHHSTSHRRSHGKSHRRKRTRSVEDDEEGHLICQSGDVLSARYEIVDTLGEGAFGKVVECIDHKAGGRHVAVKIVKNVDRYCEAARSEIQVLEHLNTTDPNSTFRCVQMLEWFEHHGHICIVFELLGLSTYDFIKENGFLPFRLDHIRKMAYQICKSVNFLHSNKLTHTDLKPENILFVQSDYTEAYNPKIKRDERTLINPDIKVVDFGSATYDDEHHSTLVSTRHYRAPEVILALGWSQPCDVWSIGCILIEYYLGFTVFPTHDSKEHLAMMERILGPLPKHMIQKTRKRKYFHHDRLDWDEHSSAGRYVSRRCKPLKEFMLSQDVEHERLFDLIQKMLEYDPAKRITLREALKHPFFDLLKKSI
Description: as §1

JNK2 = biological target: T3, JNK2 (Homo sapiens, UniProt P45984); details: JNK2, two replicates
T3 construct: host or cells: HEK293T (ATCC CRL-3216)
T3 sequence (P45984 whole entry): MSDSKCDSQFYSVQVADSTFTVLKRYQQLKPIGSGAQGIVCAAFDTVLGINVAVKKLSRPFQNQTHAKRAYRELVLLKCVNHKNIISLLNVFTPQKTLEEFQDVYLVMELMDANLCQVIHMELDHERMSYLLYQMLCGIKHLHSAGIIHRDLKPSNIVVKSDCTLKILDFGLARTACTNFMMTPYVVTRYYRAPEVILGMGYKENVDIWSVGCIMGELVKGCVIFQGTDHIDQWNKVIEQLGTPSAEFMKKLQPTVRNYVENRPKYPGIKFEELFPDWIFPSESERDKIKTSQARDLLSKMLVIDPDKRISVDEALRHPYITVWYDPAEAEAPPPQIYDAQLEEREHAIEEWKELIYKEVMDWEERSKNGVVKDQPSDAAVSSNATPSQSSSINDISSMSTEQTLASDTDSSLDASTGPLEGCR
Description: as §1

## CCSc1nc(NC)c2c(-c3cccc(NC(=O)Nc4cc(C(C)(C)C)nn4-c4ccc(C)cc4)c3)c[nH]c2n1 [Compound 32]
CDKL1
  pEC50: 4.77
CDKL1; CDKL1, inhibitor 8 nM, two replicates, read-out: nanoBRET response normalized to 0% (no tracer) and 100% (no inhibitor) control
  remaining activity at 0.008 µM: 102% and 110%
CDKL1; CDKL1, inhibitor 16 nM, two replicates, listed as RN341, 0.016 µM
  nanoBRET response normalized to 0% (no tracer) and 100% (no inhibitor) control: 102.251%
CDKL1; CDKL1, inhibitor 16 nM, two replicates, read-out: nanoBRET response normalized to 0% (no tracer) and 100% (no inhibitor) control
  remaining activity at 0.016 µM: 96.8%
CDKL1; CDKL1, inhibitor 50 nM, two replicates, read-out: nanoBRET response normalized to 0% (no tracer) and 100% (no inhibitor) control
  remaining activity at 0.05 µM: 106% and 102%
CDKL1; CDKL1, inhibitor 250 nM, two replicates, listed as RN341, […]
  nanoBRET response normalized to 0% (no tracer) and 100% (no inhibitor) control: 106.285%
CDKL1; CDKL1, inhibitor 250 nM, two replicates, read-out: nanoBRET response normalized to 0% (no tracer) and 100% (no inhibitor) control
  remaining activity at […]: 116%
CDKL1; CDKL1, inhibitor 500 nM, two replicates, listed as RN341, 0.5 µM
  nanoBRET response normalized to 0% (no tracer) and 100% (no inhibitor) control: 96.8094%
CDKL1; CDKL1, inhibitor 500 nM, two replicates, read-out: nanoBRET response normalized to 0% (no tracer) and 100% (no inhibitor) control
  remaining activity at 0.5 µM: 106%
CDKL1; CDKL1, inhibitor 2500 nM, two replicates, listed as RN341, […]
  nanoBRET response normalized to 0% (no tracer) and 100% (no inhibitor) control: 88.1398%
CDKL1; CDKL1, inhibitor 2500 nM, two replicates, read-out: nanoBRET response normalized to 0% (no tracer) and 100% (no inhibitor) control
  remaining activity at […]: 91%
CDKL1; CDKL1, inhibitor 5000 nM, two replicates, listed as RN341, 5 µM
  nanoBRET response normalized to 0% (no tracer) and 100% (no inhibitor) control: 77.8643%
CDKL1; CDKL1, inhibitor 5000 nM, two replicates, read-out: nanoBRET response normalized to 0% (no tracer) and 100% (no inhibitor) control
  remaining activity at 5 µM: 74.8%
CDKL1; CDKL1, inhibitor 25000 nM, two replicates, listed as RN341, 25 µM
  nanoBRET response normalized to 0% (no tracer) and 100% (no inhibitor) control: 39.2489%
CDKL1; CDKL1, inhibitor 25000 nM, two replicates, read-out: nanoBRET response normalized to 0% (no tracer) and 100% (no inhibitor) control
  remaining activity at 25 µM: 46.9%
CLK1
  pEC50: 5.22
CLK1; CLK1, inhibitor 8 nM, two replicates, listed as RN341, 0.008 µM
  nanoBRET response normalized to 0% (no tracer) and 100% (no inhibitor) control: 96.3388%
CLK1; CLK1, inhibitor 8 nM, two replicates, read-out: nanoBRET response normalized to 0% (no tracer) and 100% (no inhibitor) control
  normalized NanoBRET tracer signal at 0.008 µM: 99.4%
CLK1; CLK1, inhibitor 16 nM, two replicates, listed as RN341, 0.016 µM
  nanoBRET response normalized to 0% (no tracer) and 100% (no inhibitor) control: 93.1575%
CLK1; CLK1, inhibitor 16 nM, two replicates, read-out: nanoBRET response normalized to 0% (no tracer) and 100% (no inhibitor) control
  normalized NanoBRET tracer signal at 0.016 µM: 93.9%
CLK1; CLK1, inhibitor 50 nM, two replicates, listed as RN341, 0.05 µM
  nanoBRET response normalized to 0% (no tracer) and 100% (no inhibitor) control: 98.6143%
CLK1; CLK1, inhibitor 50 nM, two replicates, read-out: nanoBRET response normalized to 0% (no tracer) and 100% (no inhibitor) control
  normalized NanoBRET tracer signal at 0.05 µM: 97.1%
CLK1; CLK1, inhibitor 250 nM, two replicates, listed as RN341, […]
  nanoBRET response normalized to 0% (no tracer) and 100% (no inhibitor) control: 91.8848%
CLK1; CLK1, inhibitor 250 nM, two replicates, read-out: nanoBRET response normalized to 0% (no tracer) and 100% (no inhibitor) control
  normalized NanoBRET tracer signal at […]: 93.8%
CLK1; CLK1, inhibitor 500 nM, two replicates, listed as RN341, 0.5 µM
  nanoBRET response normalized to 0% (no tracer) and 100% (no inhibitor) control: 89.5722%
CLK1; CLK1, inhibitor 500 nM, two replicates, read-out: nanoBRET response normalized to 0% (no tracer) and 100% (no inhibitor) control
  normalized NanoBRET tracer signal at 0.5 µM: 87.8%
CLK1; CLK1, inhibitor 2500 nM, two replicates, listed as RN341, […]
  nanoBRET response normalized to 0% (no tracer) and 100% (no inhibitor) control: 66.5911%
CLK1; CLK1, inhibitor 2500 nM, two replicates, read-out: nanoBRET response normalized to 0% (no tracer) and 100% (no inhibitor) control
  normalized NanoBRET tracer signal at […]: 70.4%
CLK1; CLK1, inhibitor 5000 nM, two replicates, listed as RN341, 5 µM
  nanoBRET response normalized to 0% (no tracer) and 100% (no inhibitor) control: 68.3349%
CLK1; CLK1, inhibitor 5000 nM, two replicates, read-out: nanoBRET response normalized to 0% (no tracer) and 100% (no inhibitor) control
  normalized NanoBRET tracer signal at 5 µM: 62%
CLK1; CLK1, inhibitor 25000 nM, two replicates, listed as RN341, 25 µM
  nanoBRET response normalized to 0% (no tracer) and 100% (no inhibitor) control: 18.5705%
CLK1; CLK1, inhibitor 25000 nM, two replicates, read-out: nanoBRET response normalized to 0% (no tracer) and 100% (no inhibitor) control
  normalized NanoBRET tracer signal at 25 µM: 17.2%
JNK2; inhibitor 8 nM, listed as RN341, 0.008 µM
  nanoBRET response normalized to 0% (no tracer) and 100% (no inhibitor) control: 97.2218%
JNK2; inhibitor 8 nM, read-out: nanoBRET response normalized to 0% (no tracer) and 100% (no inhibitor) control
  remaining activity at 0.008 µM: 103%
JNK2; inhibitor 16 nM, listed as RN341, 0.016 µM
  nanoBRET response normalized to 0% (no tracer) and 100% (no inhibitor) control: 96.1223%
JNK2; inhibitor 16 nM, read-out: nanoBRET response normalized to 0% (no tracer) and 100% (no inhibitor) control
  remaining activity at 0.016 µM: 95.8%
JNK2; inhibitor 50 nM, listed as RN341, 0.05 µM
  nanoBRET response normalized to 0% (no tracer) and 100% (no inhibitor) control: 96.724%
JNK2; inhibitor 50 nM, read-out: nanoBRET response normalized to 0% (no tracer) and 100% (no inhibitor) control
  remaining activity at 0.05 µM: 91.7%
JNK2; inhibitor 250 nM, listed as RN341, […]
  nanoBRET response normalized to 0% (no tracer) and 100% (no inhibitor) control: 80.9747%
JNK2; inhibitor 250 nM, read-out: nanoBRET response normalized to 0% (no tracer) and 100% (no inhibitor) control
  remaining activity at […]: 78.7%
JNK2; inhibitor 500 nM, listed as RN341, 0.5 µM
  nanoBRET response normalized to 0% (no tracer) and 100% (no inhibitor) control: 61.7006%
JNK2; inhibitor 500 nM, read-out: nanoBRET response normalized to 0% (no tracer) and 100% (no inhibitor) control
  remaining activity at 0.5 µM: 65.3%
JNK2; inhibitor 2500 nM, listed as RN341, […]
  nanoBRET response normalized to 0% (no tracer) and 100% (no inhibitor) control: 73.4181%
JNK2; inhibitor 2500 nM, read-out: nanoBRET response normalized to 0% (no tracer) and 100% (no inhibitor) control
  remaining activity at […]: 71.9%
JNK2; inhibitor 5000 nM, listed as RN341, 5 µM
  nanoBRET response normalized to 0% (no tracer) and 100% (no inhibitor) control: 50.6395%
JNK2; inhibitor 5000 nM, read-out: nanoBRET response normalized to 0% (no tracer) and 100% (no inhibitor) control
  remaining activity at 5 µM: 57.2%
JNK2; inhibitor 25000 nM, listed as RN341, 25 µM
  nanoBRET response normalized to 0% (no tracer) and 100% (no inhibitor) control: 6.955%
JNK2; inhibitor 25000 nM, read-out: nanoBRET response normalized to 0% (no tracer) and 100% (no inhibitor) control
  remaining activity at 25 µM: 9.64%
